Assay [1] relates to proteasome ChT-L activity in SK-N-SH (ATCC HTB-11) cell lysates. Put plainly: ChT-L proteasome activity in lysates of treated SK-N-SH cells. The assay is classed as cell-based, human. The note with it: SK-N-SH cells; for Proteasome ChT-L activity in lysates of treated cells versus control lysates (in words): 1 µM peptide, 24 h, 1 μg lysate, 50 μM Suc-LLVY-AMC, n = 3–4. Here is the method: […] The content of live cells was determined by the Trypan Blue-exclusion assay. The cells were harvested, washed twice in PBS, resuspended in dilution buffer (see above) and stored in −80 °C. To prepare lysates the thawed preparations were vortexed with glass beads and centrifuged for 5 min 5000× g (4 °C). The supernatant was centrifuged for 20 min 14,000× g (4 °C). The resulting supernatant—“crude lysate” was diluted to 1 mg/mL of total protein with dilution buffer. 1 μg of lysate per assay (reaction buffer: 50 mM Tris/HCl pH 8, 0.1 mM MgCl2, 0.2 mM ATP, 0.1 mM dithiothreitol, 50 μM Suc-LLVY-AMC) was used for determination of ChT-L activity in a 96-well format, as above.

For assay [2], the system named is 20S core proteasome α face pockets. Description: Competition with Rpt C-terminal tail peptides for α face pockets (ChT-L activity). Type of assay: biochemical, human. The conditions noted are these: Rpt peptide 1 μM added before TAT peptide; for Competition with Rpt tail peptides (in words, from radar plot scores): Rpt2 α3/α4, Rpt3 α1/α2, Rpt5 α5/α6, Rpt6 α2/α3 pocket, three to six experiments; for Enhanced (synergistic) activation with Rpt tail peptides (in words): Rpt5 or Rpt6 tails. The source says: As mentioned above, the binding pockets on the α face accept “anchors” from natural protein ligands of the 20S core. […] The 10-residue Rpt-derived C-terminal “tail” peptides (“Rpt peptides”) can be used as competitors with the Rpt subunits or with small allosteric ligands. Importantly, the Rpt peptides interject between the subunits with their C-termini, whereas TAT peptides, according to the modeling, use their N-termini for this purpose. To test the specificity of interactions between TAT compounds and the α face, we performed competition experiments. The 20S core was challenged with selected TAT compounds after treatment with Rpt peptides. We selected peptides of Rpt2 ([…]), Rpt3 ([…]), Rpt5 ([…]) and Rpt6 […]) subunits, docking in α3/α4, α1/α2, α5/α6 and α2/α3 pockets, respectively. Tails of Rpt2, 3, and 5 display the canonical HbYX motif, whereas the LeuTrpLys C-terminus of Rpt6 may be considered “pseudo-HbYX”, with a bulky Trp replacing Tyr. Results of the competition experiments are presented as radar plots in Figure 7. […] This pocket also emerged as the major binding site for (1) and (8). However, these compounds likely weakly competed with the Rpt2 tail for binding to the α3/α4 pocket as well. The α3/α4 pocket seemed to be favored by (6). […] These complex patterns point at the importance of allosteric effects between the α face ligands, the gate and the catalytic chamber.
Figure 7 TAT1 derivatives competed with selected C-terminal tails of Rpt (Regulatory Particle ATPases) subunits for binding to specific α face pockets. The scores presented in radar plots were calculated as ((relative activation by the [x] and Rpt tail)-(theoretical sum of activation by [x] and Rpt tail))/(theoretical sum of activation by [x] and Rpt tail), where [x] represent any TAT peptide. […] The positive scores for combinations of selected compounds with Rpt5 or Rpt6 tails indicated a presumed synergy in activation of the core. Average scores derived from three to six experiments are presented. The competition effects were statistically significant (at least p < 0.05) for Rpt3 peptide and (1) and (8), as well as for Rpt2 peptide and (6).
Human housekeeping core (20S) proteasome purified from erythrocytes was purchased from Boston Biochem, Inc. (Cambridge, MA) or from Enzo Life Sciences, Inc. (Farmingdale, NY). Multiple batches of the proteasomes were used and performed reproducibly. The stock proteasome was diluted to 0.2 mg/mL working solution in “dilution buffer” (50 mM Tris/HCl, pH 8, 20% glycerol). The following model peptide substrates, all releasing fluorescent 7-amino-4-methylcoumarin (AMC) reporter group after cleavage, were used: succinyl-LeuLeuValTyr-AMC (for the ChT-L peptidase; SucLLVY-AMC; Bachem Bioscience Inc., Philadelphia, PA), butoxycarbonyl-LeuArgArg-AMC (T-L; Bachem Bioscience Inc., Philadelphia, PA) and carbobenzoxy- LeuLeuGlu-AMC (PGPH; Enzo Life Sciences Inc., Farmingdale, NY). The substrates were used at concentration of 50 μM (ChT-L) or 100 μM (T-L, PGPH). Free AMC (Sigma-Aldrich, St. Louis, MO) was used as the standard. The C-terminal peptides derived from Rpt2, Rpt3, Rpt5 and Rpt6 were synthesized (standard solid-phase peptide chemistry) and purified to at least 98% purity by GenScript (Piscataway, NJ). The TAT peptides, Rpt peptides (except Rpt6) and the peptide substrates were dissolved in anhydrous dimethylsulfoxide (DMSO; Sigma-Aldrich, St. Louis, MO) and such stock solutions were stored at −20 °C. The total concentration of DMSO in final reaction mixtures never exceeded 3% (vol/vol). The Trp (tryptophan) -containing Rpt6 peptide was dissolved in ultrapure water and stored at −20 °C, protected from light. […]

On to `N=C(N)NCCC[C@H](NC(=O)CN)C(=O)N[C@@H](CCCCN)C(=O)N[C@@H](CCCCN)C(=O)N[C@@H](CCCNC(=N)N)C(=O)N[C@@H](CCCNC(=N)N)C(=O)N[C@@H](CCC(N)=O)C(=O)N1Cc2ccccc2C[C@H]1C(=O)N1[C@@H](C(=O)N[C@@H](CCCNC(=N)N)C(=O)N2CCC[C@H]2C(=O)N[C@@H](CO)C(=O)O)C[C@H]2CCCC[C@H]21` [(5)], for which, in assay [1], the “Proteasome ChT-L activity in lysates of treated cells versus control lysates (in words)” value was “significantly higher than activity in control lysates”. In addition, in assay [1] (0.5 or 1.0 µM, 4 or 24 h), the “Dose dependent proteasome activation, 4 h versus 24 h exposure (in words)” value is recorded as “substantially stronger after 4 h exposure than after 24 h”. Further, in assay [2], the “Competition with Rpt tail peptides (in words, from radar plot scores)” value is listed as “competed fairly specifically with Rpt3 tail” and the “Enhanced (synergistic) activation with Rpt tail peptides (in words)” value is “enhanced activation in the presence of one of Rpt tails, namely Rpt5 or Rpt6”.
Regarding `NCCCC[C@H](NC(=O)[C@H](CCCCN)NC(=O)[C@H](CCCCN)NC(=O)c1cc(NC(=O)[C@H](CCCCN)NC(=O)[C@H](CCCCN)NC(=O)[C@@H](N)CCCCN)cc(NC(=O)[C@H](CCCCN)NC(=O)[C@H](CCCCN)NC(=O)[C@@H](N)CCCCN)c1)C(=O)O` [(8)], in assay [1], the “Proteasome ChT-L activity in lysates of treated cells versus control lysates (in words)” value is “significantly higher than activity in control lysates”. Besides, in assay [2], the “Competition with Rpt tail peptides (in words, from radar plot scores)” value is recorded as “added a weakly negative score for the Rpt2 tail to the presumed major competitor Rpt3” and the “Enhanced (synergistic) activation with Rpt tail peptides (in words)” value is on record as “enhanced activation in the presence of one of Rpt tails, namely Rpt5 or Rpt6”.

(Values after article PMC7145288, “New Peptide-Based Pharmacophore Activates 20S Proteasome” (Molecules, 2020).)
